Laboratory results from patent publication US11471444B2, “Methods of inhibiting tumor metastasis” (Vanderbilt University, priority 2017, dated 2022).

Assays:
4T1-RFP-luciferase cells [1] = assay: Orthotopic 4T1 mouse model of metastasis (second experiment); format: in vivo, Balb/C mice; conditions: ifetroban 50 mg/kg daily or aspirin 12 mg/kg daily from tumor volume 50 mm^3; lungs harvested approx. 4 weeks later; FIG. 3
Procedure: 1×10^5 4T1-RFP-luciferase cells were implanted into the left inguinal mammary fatpads of 6-week old, virgin WT Balb/C female mice as above. Mice were treated by orogastric gavage with ifetroban (50 mg/kg daily) or vehicle control when average tumor volume reached 50 mm^3 as above. Additionally a third group was treated with aspirin (12 mg/kg daily). Lungs were harvested approximately 4 weeks later. Lungs were assessed by whole mount hematoxylin staining to enumerate surface metastases (macro metastases) (FIG. 3).

4T1-RFP-luciferase cells [2] = assay: Orthotopic 4T1 mouse model of metastasis (first experiment); format: in vivo, Balb/C mice
Procedure: 1×10^5 4T1-RFP-luciferase cells were implanted into the left inguinal mammary fatpads of 6-week old, virgin WT Balb/C female mice using the following protocol. Mammary tumor cells (4T1-RFP-luciferase cells) are collected by trypsinization, counted, and resuspended in 50 microliters of serum-free media+50 microliters of growth factor-reduced Matrigel, for a total volume of 100 microliters. The cells are loaded into a syringe with a 26-g needle. The cells are injected into the inguinal mammary gland, which lies directly under (and attached to) the skin. The entire injection procedure takes about 10 seconds per mouse. Mice were treated by orogastric gavage with ifetroban (50 mg/kg daily) or vehicle control when average tumor volume reached 200 mm^3, using 8 mice in the ifetroban treatment group, 4 mice in the control group, and 4% sucrose in water for the vehicle. Tumors, lungs and plasma were harvested approximately 3 weeks later. Lungs were assessed by whole mount hematoxylin staining to enumerate surface metastases (macro metastases) (FIG. 1). Lungs were sectioned and stained with hematoxylin and eosin to confirm that hematoxylin-stained nodules were metastatic lesions, and to enumerate microscopic metastases (FIG. 2).
(§1) 1×10^5 4T1-RFP-luciferase cells were implanted into the left inguinal mammary fat pads of 6-week old, virgin WT Balb/C female mice. Mice were treated by orogastric gavage with ifetroban (50 mg/kg daily; N=8) or vehicle control (N=4) when average tumor volume reached 200 mm^3. […] Mouse total body weight was not affected by Ifetroban treatment (50 mg/kg daily) for 3 weeks (FIG. 5C).

[3] = system: MDA-MB-231 (breast) cancer cells; assay: Hematogenous metastasis of breast cancer cells (tail vein injection); format: in vivo, nu/nu mice; conditions: 50 mg/kg by orogastric gavage, pre-treated 24 hours, daily for 21 days; FIG. 8
Procedure: (§2) MDA-MB-231 (breast), MiaPaca2 (pancreas) and A549 (lung) cancer cells were delivered by tail vein injection to nu/nu mice pre-treated 24 hours by orogastric gavage with ifetroban (50 mg/kg; N=10 per group) or vehicle (N=10). Mice continued daily treatment for an additional 21 days. On day 21, lungs were harvested and assessed for metastases. N=9, P value, Student's t-test.

[4] = system: MiaPaca2 (pancreas) cancer cells; assay: Hematogenous metastasis of pancreatic cancer cells (tail vein injection); format: in vivo, nu/nu mice; conditions: 50 mg/kg by orogastric gavage, pre-treated 24 hours, daily for 21 days; FIG. 8
Procedure: as §2

A549 (lung) cancer cells = assay: Hematogenous metastasis of lung cancer cells (tail vein injection); format: in vivo, nu/nu mice; conditions: 50 mg/kg by orogastric gavage, pre-treated 24 hours, daily for 21 days; FIG. 8
Procedure: as §2

[5] = Total body weight of 4T1 tumor-bearing mice; format: in vivo, Balb/C mice; conditions: 50 mg/kg daily for 3 weeks; FIG. 5C
Procedure: as §1

4T1 cells = assay: 4T1 cell culture growth and viability; format: cell-based; conditions: treated for 96 hours; FIG. 5A
From the text: For cell culture experiments, vehicle is PBS.

MDA-MB-231 cells = assay: Lung metastases after tail vein injection of MDA-MB-231 cells; format: in vivo, mice; conditions: 50 mg/kg daily by orogastric gavage from 48 h before cell injection, continued 3 weeks; FIG. 4
Procedure: Mice were randomized into groups receiving treatment by orogastric gavage with ifetroban (50 mg/kg daily) or vehicle, using 10 mice in both the ifetroban and control groups and 4% sucrose in water for the vehicle. Mice were treated 48 h prior to hematogenous delivery of MDA-MB-231 cells (1×10^5 cells) by tail vein injection, and ifetroban treatment was continued for 3 weeks thereafter, at which point lungs were collected from each mouse, and lung metastatic lesions visible to the naked eye were counted (FIG. 4).

Row | SMILES | surface lung metastases (macro metastases) (4T1-RFP-luciferase cells [1]) | microscopic lung metastases (4T1-RFP-luciferase cells [2]; 50 mg/kg daily by orogastric gavage from tumor volume 200 mm^3, approx. 3 weeks, lung sections, hematoxylin and eosin, FIG. 2) | surface lung metastases (macro metastases) (4T1-RFP-luciferase cells [2]; 50 mg/kg daily by orogastric gavage from tumor volume 200 mm^3, lungs harvested approx. 3 weeks later, whole mount hematoxylin staining, FIG. 1) | primary tumor volume (4T1-RFP-luciferase cells [2]; 50 mg/kg daily for 3 weeks, FIG. 5B) | hematogenous metastasis to lungs, breast cancer cells [3] | hematogenous metastasis to lungs, pancreatic cancer cells [4] | hematogenous metastasis to lungs, lung cancer cells (A549 (lung) cancer cells) | total mouse body weight [5] | 4T1 cell number (automated cell counting) (4T1 cells) | number of apoptotic 4T1 cells (Annexin V staining) (4T1 cells) | lung metastatic lesions visible to the naked eye (MDA-MB-231 cells)
1 | CCCCCNC(=O)c1coc([C@H]2[C@@H](Cc3ccccc3CCC(=O)O)[C@@H]3CC[C@H]2O3)n1 [ifetroban] | decrease | decrease | decrease | did not affect | decreased | decreased | decreased | not affected | no ifetroban-mediated changes | no ifetroban-mediated changes | decrease
2 | CC(=O)Oc1ccccc1C(=O)O [aspirin] | decrease |  |  |  |  |  |  |  |  |  | 
